In brackets after ≈: the same amount, converted by molar mass.
Assays:
Test in all cases: microbe, parasite or virus in culture
[1] = test system: Porphyromonas assacharolyticus; settings: read-out: Minimum inhibitory concentration
Enterococcus faecium = settings: read-out: Minimum inhibitory concentration
Clostridium sordellii = settings: Paraclostridium sordellii, NCTC13356, read-out: Minimum inhibitory concentration
Veillonella spp. = settings: read-out: Minimum inhibitory concentration
[2] = test system: Staphylococcus saprophyticus; settings: read-out: Minimum inhibitory concentration
Prevotella bivia = settings: ATCC29303, read-out: Minimum inhibitory concentration

CCC[C@@H]1C[C@@H](C(=O)N[C@@H]([C@H]2O[C@H](SC)[C@H](O)[C@@H](O)[C@H]2O)[C@H](C)Cl)N(C)C1 [Clindamycin, clindamycin, reference compound]
MIC [1]: ≤ 0.03 µg/mL | MIC (Enterococcus faecium): 32 µg/mL (≈ 75.3 µM) | MIC (Clostridium sordellii): 0.5 µg/mL (≈ 1.18 µM) | MIC (Veillonella spp.): ≤ 0.03 µg/mL | MIC [2]: 0.06 µg/mL (≈ 0.141 µM) | MIC (Prevotella bivia): ≤ 0.03 µg/mL

Source: patent US20120202756A1, “USE OF PRODRUGS TO AVOID GI MEDIATED ADVERSE EVENTS” (priority 2009, published 2012)
